How the values were obtained:
cynomolgus Siglec-2/CD22 = cynomolgus Siglec-2/CD22 (Macaca fascicularis, UniProt A0A2K5WCZ6); test: biochemical; assay type: binding; conditions: SPR, steady-state analysis; read-out: Affinity cyno CD22
Outline: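 Compound binding measured by steady-state SPR analysis, 120 s dissociation, in HEPES-NaCl-Tween buffer pH 7.5 containing 1% DMSO, DMSO solvent-corrected. Surface: cyno CD22, sialic acids first stripped by SialoExo for 4 h at 37° C., then amine-coupled onto CM5.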

[1] = target: T1, mouse Siglec-2-Fc-Avi (CD22) (Mus musculus, UniProt P35329); test: SPR binding affinity to mouse CD22; conditions: steady-state analysis
T1 construct: made in house
T1 sequence (P35329 22-708 limits assumed): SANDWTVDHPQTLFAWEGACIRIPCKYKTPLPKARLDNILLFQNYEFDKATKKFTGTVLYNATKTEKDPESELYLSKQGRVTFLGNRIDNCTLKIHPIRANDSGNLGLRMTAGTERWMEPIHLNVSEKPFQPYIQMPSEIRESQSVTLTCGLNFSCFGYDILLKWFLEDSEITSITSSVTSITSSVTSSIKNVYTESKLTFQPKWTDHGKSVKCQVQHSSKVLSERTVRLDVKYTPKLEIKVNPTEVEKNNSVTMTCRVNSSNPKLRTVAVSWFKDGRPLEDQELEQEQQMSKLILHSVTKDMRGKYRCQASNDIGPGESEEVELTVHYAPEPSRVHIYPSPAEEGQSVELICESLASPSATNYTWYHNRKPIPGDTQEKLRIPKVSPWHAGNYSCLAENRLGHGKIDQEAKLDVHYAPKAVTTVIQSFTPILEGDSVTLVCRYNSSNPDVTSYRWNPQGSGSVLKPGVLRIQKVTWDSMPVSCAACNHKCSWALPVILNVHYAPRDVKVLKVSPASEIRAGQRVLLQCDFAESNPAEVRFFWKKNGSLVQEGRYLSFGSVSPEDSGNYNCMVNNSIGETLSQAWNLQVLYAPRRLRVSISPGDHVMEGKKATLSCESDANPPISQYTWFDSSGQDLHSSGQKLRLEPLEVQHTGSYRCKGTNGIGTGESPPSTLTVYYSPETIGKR
Outline: (§1)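 Using a Biacore 8K, compounds were tested against biotinylated CD22 captured after sialidase treatment. The running buffer held 1% DMSO, corrected with a 0.5–2% DMSO series. Affinity was derived by steady-state analysis.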

[2] = target: T2, human Siglec-2/CD22 protein (Homo sapiens, UniProt P20273); test: SPR binding affinity to human CD22; conditions: steady-state analysis
T2 construct: purchased Acro Biosystems SI2-H82E3
T2 sequence (P20273 20-847): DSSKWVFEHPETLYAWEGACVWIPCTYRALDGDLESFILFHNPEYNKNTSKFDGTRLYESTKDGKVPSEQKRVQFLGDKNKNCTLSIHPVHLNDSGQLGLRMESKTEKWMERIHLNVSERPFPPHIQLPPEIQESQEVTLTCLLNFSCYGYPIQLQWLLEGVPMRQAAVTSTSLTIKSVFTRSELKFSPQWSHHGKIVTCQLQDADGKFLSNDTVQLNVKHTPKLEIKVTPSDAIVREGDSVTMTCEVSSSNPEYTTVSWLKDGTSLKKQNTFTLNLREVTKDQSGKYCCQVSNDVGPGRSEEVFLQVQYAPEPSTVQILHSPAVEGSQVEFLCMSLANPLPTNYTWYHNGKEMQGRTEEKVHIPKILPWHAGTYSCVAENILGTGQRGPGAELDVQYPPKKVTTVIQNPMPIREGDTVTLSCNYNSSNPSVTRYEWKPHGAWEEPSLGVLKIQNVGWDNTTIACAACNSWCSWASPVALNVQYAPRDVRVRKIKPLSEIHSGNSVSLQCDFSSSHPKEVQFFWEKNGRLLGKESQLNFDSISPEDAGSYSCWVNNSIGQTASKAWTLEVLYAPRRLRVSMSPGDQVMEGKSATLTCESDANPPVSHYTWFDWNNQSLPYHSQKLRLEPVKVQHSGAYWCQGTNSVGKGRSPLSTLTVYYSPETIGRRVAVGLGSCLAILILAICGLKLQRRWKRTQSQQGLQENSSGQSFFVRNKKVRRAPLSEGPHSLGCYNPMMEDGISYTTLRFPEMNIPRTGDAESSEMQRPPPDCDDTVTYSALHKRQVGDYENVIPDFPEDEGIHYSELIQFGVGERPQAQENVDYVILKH
Outline: as §1

Sequence of cynomolgus Siglec-2/CD22 (A0A2K5WCZ6 entry or part of it): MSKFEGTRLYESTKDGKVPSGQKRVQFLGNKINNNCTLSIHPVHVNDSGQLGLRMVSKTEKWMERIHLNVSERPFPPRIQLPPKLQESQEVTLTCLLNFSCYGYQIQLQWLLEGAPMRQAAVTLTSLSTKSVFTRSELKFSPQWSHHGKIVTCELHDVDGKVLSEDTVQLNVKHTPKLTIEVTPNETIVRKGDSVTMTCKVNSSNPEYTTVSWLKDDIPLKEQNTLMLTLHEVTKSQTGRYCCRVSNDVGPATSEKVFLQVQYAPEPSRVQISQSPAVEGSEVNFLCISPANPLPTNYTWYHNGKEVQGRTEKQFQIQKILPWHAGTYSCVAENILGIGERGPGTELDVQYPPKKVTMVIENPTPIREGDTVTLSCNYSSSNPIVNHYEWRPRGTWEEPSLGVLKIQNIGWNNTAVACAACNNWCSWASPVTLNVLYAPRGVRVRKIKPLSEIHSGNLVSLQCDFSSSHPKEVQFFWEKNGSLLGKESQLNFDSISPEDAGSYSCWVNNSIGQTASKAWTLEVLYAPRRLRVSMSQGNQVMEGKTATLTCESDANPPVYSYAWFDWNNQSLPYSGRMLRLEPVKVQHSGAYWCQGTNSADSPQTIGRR

What does the source list for `C#CCOCCCCCCO[C@]1(C(=O)O)C[C@H](O)[C@@H](NC(=O)C(O)CO)[C@H]([C@H](O)[C@H](O)CNC(=O)Cc2ccc(Cl)cc2)O1` (stereo partly drawn) [Compound 210, (2R,4S,5R,6R)-6-((1R,2R)-3-(2-(4-chlorophenyl)acetamido)-1,2-dihydroxypropyl)-5-(2,3-dihydroxypropanamido)-4-hydroxy-2-((6-(prop-2-yn-1-yloxy)hexyl)oxy)tetrahydro-2H-pyran-2-carboxylic acid]?
Kd (cynomolgus Siglec-2/CD22): < 1000 nM; Kd [1]: < 1000 nM; Kd [2]: 1000 to 10000 nM

How did the Kd (cynomolgus Siglec-2/CD22) turn out when `C#CCOCCCCCCO[C@]1(C(=O)O)C[C@H](O)[C@@H](NC(=O)CNC)[C@H]([C@H](O)[C@H](O)CNC(=O)Cc2ccc(Cl)cc2)O1` [Compound 211] was run?
Its Kd is < 1000 nM.

What about the Kd [1] of the same compound?
The Kd was < 1000 nM.

What about the Kd [2] of the same compound?
The Kd was < 1000 nM.

Which results are given for `C#CCCCCCCO[C@]1(C(=O)O)C[C@H](O)[C@@H](NC(=O)CO)[C@H]([C@H](O)[C@H](O)CNC(=O)Cc2ccc(C(F)F)cc2)O1` [Compound 212, (2R,4S,5R,6R)-6-((1R,2R)-3-(2-(4-(difluoromethyl)phenyl)acetamido)-1,2-dihydroxypropyl)-4-hydroxy-5-(2-hydroxyacetamido)-2-(oct-7-yn-1-yloxy)tetrahydro-2H-pyran-2-carboxylic acid]?
Kd (cynomolgus Siglec-2/CD22): < 1000 nM; Kd [1]: < 1000 nM; Kd [2]: < 1000 nM

`C#CCOCCNC(=O)CCCCCCO[C@]1(C(=O)O)C[C@H](O)[C@@H](NC(=O)CO)[C@H]([C@H](O)[C@H](O)CNC(=O)Cc2ccc(C(F)F)cc2)O1` [Compound 213, (2R,4S,5R,6R)-6-((1R,2R)-3-(2-(4-(difluoromethyl)phenyl)acetamido)-1,2-dihydroxypropyl)-4-hydroxy-5-(2-hydroxyacetamido)-2-((7-oxo-7-((2-(prop-2-yn-1-yloxy)ethyl)amino)heptyl)oxy)tetrahydro-2H-pyran-2-carboxylic acid] was tested. Which Kd (cynomolgus Siglec-2/CD22) did it give?
Its Kd is < 1000 nM.

And the Kd [1]?
Its Kd is < 1000 nM.

And the Kd [2]?
Its Kd is < 1000 nM.

With `C#CCOCCNc1c(NCCCCCCO[C@]2(C(=O)O)C[C@H](O)[C@@H](NC(=O)CO)[C@H]([C@H](O)[C@H](O)CNC(=O)Cc3ccc(C(F)F)cc3)O2)c(=O)c1=O` [Compound 216, (2R,4S,5R,6R)-6-((1R,2R)-3-(2-(4-(difluoromethyl)phenyl)acetamido)-1,2-dihydroxypropyl)-2-((6-((3,4-dioxo-2-((2-(prop-2-yn-1-yloxy)ethyl)amino)cyclobut-1-en-1-yl)amino)hexyl)oxy)-4-hydroxy-5-(2-hydroxyacetamido)tetrahydro-2H-pyran-2-carboxylic acid] as the compound, how does the Kd (cynomolgus Siglec-2/CD22) read?
The Kd was < 1000 nM.

What about the Kd [1] of the same compound?
The Kd was < 1000 nM.

And the Kd [2]?
Its Kd is < 1000 nM.

What does the source list for `C#CCCC(=O)NCCCCCCO[C@]1(C(=O)O)C[C@H](O)[C@@H](NC(=O)CO)[C@H]([C@H](O)[C@H](O)CNC(=O)Cc2ccc(Cl)cc2)O1` [Compound 217, (2R,4S,5R,6R)-6-((1R,2R)-3-(2-(4-chlorophenyl)acetamido)-1,2-dihydroxypropyl)-4-hydroxy-5-(2-hydroxyacetamido)-2-((6-(pent-4-ynamido)hexyl)oxy)tetrahydro-2H-pyran-2-carboxylic acid]?
Kd (cynomolgus Siglec-2/CD22): < 1000 nM; Kd [1]: 1000 to 10000 nM; Kd [2]: < 1000 nM

Which results are given for `C#CCOCCNC(=O)NCCCCCCO[C@]1(C(=O)O)C[C@H](O)[C@@H](NC(=O)CO)[C@H]([C@H](O)[C@H](O)CNC(=O)Cc2ccc(Cl)cc2)O1` [Compound 218, (2R,4S,5R,6R)-6-((1R,2R)-3-(2-(4-chlorophenyl)acetamido)-1,2-dihydroxypropyl)-4-hydroxy-5-(2-hydroxyacetamido)-2-((6-(3-(2-(prop-2-yn-1-yloxy)ethyl)ureido)hexyl)oxy)tetrahydro-2H-pyran-2-carboxylic acid]?
Kd (cynomolgus Siglec-2/CD22): < 1000 nM; Kd [1]: < 1000 nM; Kd [2]: < 1000 nM
